pIC50: −log10 of the molar value.
Molecular target: T1, human FSH receptor (Homo sapiens, UniProt P23945)
T1 construct: expressed in transfected cells; host or cells: CHO (Chinese Hamster Ovary) cells, stably transfected; cotransfected with a CRE-luciferase reporter
T1 sequence (P23945 18-695): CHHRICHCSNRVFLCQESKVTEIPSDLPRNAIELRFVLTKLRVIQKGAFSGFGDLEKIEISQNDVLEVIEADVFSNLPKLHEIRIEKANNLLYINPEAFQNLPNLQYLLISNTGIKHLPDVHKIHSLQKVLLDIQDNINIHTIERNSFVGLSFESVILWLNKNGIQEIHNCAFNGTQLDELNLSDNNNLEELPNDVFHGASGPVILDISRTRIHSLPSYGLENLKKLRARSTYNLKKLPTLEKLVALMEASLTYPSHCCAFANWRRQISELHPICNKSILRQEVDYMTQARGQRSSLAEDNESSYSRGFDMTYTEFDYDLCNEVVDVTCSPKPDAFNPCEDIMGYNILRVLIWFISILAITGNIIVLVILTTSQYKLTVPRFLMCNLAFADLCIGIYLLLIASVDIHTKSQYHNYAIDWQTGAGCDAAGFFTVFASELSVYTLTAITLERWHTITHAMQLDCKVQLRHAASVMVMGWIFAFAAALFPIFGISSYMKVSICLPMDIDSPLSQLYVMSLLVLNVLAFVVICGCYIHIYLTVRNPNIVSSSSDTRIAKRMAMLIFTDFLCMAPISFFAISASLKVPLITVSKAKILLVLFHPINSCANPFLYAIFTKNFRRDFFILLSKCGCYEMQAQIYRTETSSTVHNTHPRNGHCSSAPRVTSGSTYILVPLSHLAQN
Experiment: Antagonistic activity at the human FSH receptor expressed in CHO cells (CRE-luciferase reporter)
Assay type: cell-based
Details: CHO cells stably transfected with human FSH receptor and CRE-luciferase; with 49 μM recFSH; 4 hours incubation; read-out: IC50 (inhibition of recFSH-induced luciferase stimulation)
Protocol: Antagonistic Activity of Compounds at the Human FSH Receptor Expressed in CHO Cells
Antagonistic activity of the compounds at the human FSH receptor was determined in Chinese Hamster Ovary (CHO) cells stably transfected with the human FSH receptor and cotransfected to with a cAMP responsive element (CRE)/promoter directing the expression of a firefly luciferase reporter gene. Binding of the compounds to the Gs protein-coupled FSH receptor will result in an increase of cAMP, which in turn will induce an increased transactivation of the luciferase reporter. The cells (7,500 cells/well of a 384 well plate) were incubated in Dulbecco′ minimal essential F12 modified medium (Invitrogen), supplemented with 1 μg/ml bovine insulin, 5 μg/ml human apo-transferrin, 100 U/ml penicillin G and 100 μg/ml streptomycin with the test compounds (concentration between 0.316 nM and 10.0 μM) in duplicate together with […] recFSH (which, at this concentration in the absence of test compound, induces 80% of the maximal luciferase stimulation) in a humidified atmosphere (95%) at 5-7% CO2 and 37° C. The final concentration of DMSO was 1%. After 4 hours of incubation, plates were allowed to adjust to room temperature for 1 hour. Then, SteadyLite (PerkinElmer) solution was added to the wells and cells were allowed to lyse for at least 1 hour at room temperature. Subsequently, luciferase activity was measured in a luminescence counter. The signal is expressed as counts per second (cps). The IC50 (concentration of test compound causing half-maximal (50%) inhibition of the maximally attainable inhibition of the luciferase stimulation by the compound) and efficacy of the compounds were determined using the software program MathIQ (version 2.3, ID Business Solutions Limited).

Row | pIC50 | SMILES
1 | > 7.00 | COc1cc2c(cc1OC)-c1cc(C(=O)N[C@@H](CO)Cc3c[nH]c4ccccc34)c(OC(C)C)cc1CC2 [Example 58, (R)-2-isopropoxy-N-(1-hydroxy-3-(1H-indol-3-yl)propan-2-yl)-6,7-dimethoxy-9,10-dihydrophenanthrene-3-carboxamide]
2 | > 7.00 | Cc1ccsc1-c1cc2c(cc1C(=O)N[C@@H](CO)Cc1c[nH]c3ccccc13)-c1cc3c(cc1CO2)OCO3 [Example 56, N—((R)-1-hydroxy-3-(1H-indol-3-yl)propan-2-yl)-8,9-(1′,3′-dioxolo)-3-(3-methylthiophen-2-yl)-6H-benzo[c]chromene-2-carboxamide]
3 | 6.00 to 7.00 | COc1cc2c(cc1OC)-c1cc(C(=O)N[C@@H](CO)Cc3c[nH]c4ccccc34)c(OC(C)C#N)cc1CC2 (stereo partly drawn) [Example 12, 2-(1-cyanoethoxy)-N—((R)-1-hydroxy-3-(1H-indol-3-yl)propan-2-yl)-6,7-dimethoxy-9,10-dihydrophenanthrene-3-carboxamide]
4 | > 7.00 | COc1cc2c(cc1OCCO)COc1cc(-c3ccccc3F)c(C(=O)N[C@@H](CO)Cc3c[nH]c4ccccc34)cc1-2 [Example 47, 3-(2-fluorophenyl)-N—((R)-1-hydroxy-3-(1H-indol-3-yl)propan-2-yl)-8-(2-hydroxyethoxy)-9-methoxy-6H-benzo[c]chromene-2-carboxamide]
5 | > 7.00 | COc1cc2c(cc1-c1cnn(C)c1)COc1cc(-c3ccccc3F)c(C(=O)N[C@@H](CO)Cc3c[nH]c4ccccc34)cc1-2 [Example 51, 3-(2-fluorophenyl)-N—((R)-1-hydroxy-3-(1H-indol-3-yl)propan-2-yl)-9-methoxy-8-(1-methyl-1H-pyrazol-4-yl)-6H-benzo[c]chromene-2-carboxamide]
6 | > 7.00 | COc1cc2c(cc1-c1cccnc1)COc1cc(-c3ccccc3F)c(C(=O)N[C@@H](CO)Cc3c[nH]c4ccccc34)cc1-2 [Example 50, 3-(2-fluorophenyl)-N—((R)-1-hydroxy-3-(1H-indol-3-yl)propan-2-yl)-9-methoxy-8-(pyridin-3-v)-6H-benzo[c]chromene-2-carboxamide]
7 | > 7.00 | COc1cc2c(cc1OC)-c1cc(C(=O)N[C@@H](CO)Cc3c[nH]c4ccccc34)c(-c3ccc(Cl)s3)cc1CC2 [Example 23, (R)-2-(5-chlorothiophen-2-yl)-N-(1-hydroxy-3-(1H-indol-3-yl)propan-2-yl)-6,7-dimethoxy-9,10-dihydrophenanthrene-3-carboxamide]
8 | > 7.00 | COc1cc2c(c(OC)c1OC)CCc1cc(-c3cccs3)c(C(=O)N[C@@H](CO)Cc3c[nH]c4ccccc34)cc1-2 [Example 4, (R)—N-(1-hydroxy-3-(1H-indol-3-yl)propan-2-yl)-6,7,8-trimethoxy-2-(thiophen-2-v)-9,10-dihydrophenanthrene-3-carboxamide]
